From ChEMBL document CHEMBL1201862, “PubChem BioAssay data set” (2004)
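Where inhibition never reached the appropriate level, the endpoint shown equals the highest concentration tested. Otherwise, values were interpolated linearly from a five-concentration, 48-hour dose response in 96-well plates. GI50 is the concentration that inhibits growth by half.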 Calls of active or inactive are those of the source. Cut-off read from the data, not from the text of the source: active = GI50 up to about 1.1 µM and inactive = higher. Peptide text beside a SMILES is read from it. * marks the point of attachment. Cbz = O=C(OCc1ccccc1)*; OBn = c1ccc(CO*)cc1

Tests used:
Test in all cases: growth of human tumour cells (NCI), 48 h
786-0 = system: 786-0
A549 = system: A549
BT-549 = system: BT-549
CCRF-CEM = system: CCRF-CEM
EKVX = system: EKVX
HCT-116 = system: HCT-116
K562 = system: K562
M14 = system: M14
Malme-3M = system: Malme-3M
NCI-H460 = system: NCI-H460
NCI-H522 = system: NCI-H522
OVCAR-4 = system: OVCAR-4
RXF 393 = system: RXF 393
SF-268 = system: SF-268
SK-MEL-5 = system: SK-MEL-5
T47D = system: T47D
TK-10 = system: TK-10
UACC-62 = system: UACC-62
MOLT-4 = system: MOLT-4
SF-539 = system: SF-539

Structure (SMILES) | GI50 (786-0) | GI50 (A549) | GI50 (BT-549) | GI50 (CCRF-CEM) | GI50 (EKVX) | GI50 (HCT-116) | GI50 (K562) | GI50 (M14) | GI50 (Malme-3M) | GI50 (NCI-H460) | GI50 (NCI-H522) | GI50 (OVCAR-4) | GI50 (RXF 393) | GI50 (SF-268) | GI50 (SK-MEL-5) | GI50 (T47D) | GI50 (TK-10) | GI50 (UACC-62) | GI50 (MOLT-4) | GI50 (SF-539)
Cc1cc(C)c2c(SCc3ccc(Cl)cc3Cl)nc(N)nc2n1 | 17.1 µM (inactive) | 36.3 µM (inactive) | > 100 µM (inactive) | > 100 µM (inactive) | > 100 µM (inactive) | 27 µM (inactive) | 22.7 µM (inactive) | 82.6 µM (inactive) | 32 µM (inactive) | 21.7 µM (inactive) | 15.5 µM (inactive) | > 100 µM (inactive) | > 100 µM (inactive) | > 100 µM (inactive) | > 100 µM (inactive) | 17.2 µM (inactive) | 17.6 µM (inactive) | > 100 µM (inactive) |  | 
Cc1cc(C(=O)CCCCOc2ccc(C3=NCCO3)cc2)c(C)n1C | 38.6 µM (inactive) | > 10 µM (inactive) | 33.3 µM (inactive) | 20.6 µM (inactive) | 35.8 µM (inactive) | 39.9 µM (inactive) | 39.2 µM (inactive) | 37.8 µM (inactive) | 35.3 µM (inactive) |  | 50.7 µM (inactive) | 36.5 µM (inactive) | 13.2 µM (inactive) | 52.1 µM (inactive) | 15.7 µM (inactive) | 23 µM (inactive) | 44.9 µM (inactive) | > 10 µM (inactive) | 14.7 µM (inactive) | 
O=C(O)c1ccc2c(c1C(=O)O)C(=O)OC2(c1ccc(O)cc1)c1ccc(O)cc1 | > 100 µM (inactive) | > 100 µM (inactive) | > 100 µM (inactive) | > 100 µM (inactive) | > 100 µM (inactive) | > 100 µM (inactive) | > 100 µM (inactive) | > 100 µM (inactive) | > 100 µM (inactive) | > 100 µM (inactive) | > 100 µM (inactive) | > 100 µM (inactive) | > 100 µM (inactive) | > 100 µM (inactive) | > 100 µM (inactive) | > 100 µM (inactive) | > 100 µM (inactive) | > 100 µM (inactive) | > 100 µM (inactive) | > 100 µM (inactive)
N#CCC(=O)c1cc(OCc2cc(OCc3ccc(Br)cc3)cc(OCc3ccc(Br)cc3)c2)cc(OCc2cc(OCc3ccc(Br)cc3)cc(OCc3ccc(Br)cc3)c2)c1 | > 100 µM (inactive) | > 100 µM (inactive) | > 100 µM (inactive) |  | > 100 µM (inactive) | > 100 µM (inactive) | 0.264 µM (active) | > 100 µM (inactive) | > 100 µM (inactive) | > 100 µM (inactive) | > 100 µM (inactive) | > 100 µM (inactive) |  | > 100 µM (inactive) | > 100 µM (inactive) | > 100 µM (inactive) | > 100 µM (inactive) | > 100 µM (inactive) |  | 
COc1ccc(OC)c2cc(Cc3ccc(N(C)C)cc3)c(=O)c(Cc3ccc(N(C)C)cc3)cc12 | 90.8 µM (inactive) | 57 µM (inactive) | > 100 µM (inactive) | > 100 µM (inactive) | > 100 µM (inactive) | > 100 µM (inactive) | 34.4 µM (inactive) | > 100 µM (inactive) | > 100 µM (inactive) | 55.6 µM (inactive) | 20.7 µM (inactive) | > 100 µM (inactive) | > 100 µM (inactive) | 46.7 µM (inactive) | 63.7 µM (inactive) | 76.9 µM (inactive) |  | 59.4 µM (inactive) | > 100 µM (inactive) | 86.1 µM (inactive)
CC1=C([S+]([O-])c2ccc(C)cc2)CCC2(CCCCO2)O1 (stereo not given) | > 100 µM (inactive) |  | > 100 µM (inactive) |  | > 100 µM (inactive) | > 100 µM (inactive) | 46.8 µM (inactive) |  | > 100 µM (inactive) | > 100 µM (inactive) | > 100 µM (inactive) | > 100 µM (inactive) | > 100 µM (inactive) | > 100 µM (inactive) | 33.3 µM (inactive) | > 100 µM (inactive) | > 100 µM (inactive) | > 100 µM (inactive) | > 100 µM (inactive) | 
N#CC(/N=N/c1ccccc1C(=O)O)C(N)=O (stereo not given) | > 100 µM (inactive) | > 100 µM (inactive) | > 100 µM (inactive) | > 100 µM (inactive) | > 100 µM (inactive) | > 100 µM (inactive) | > 100 µM (inactive) | > 100 µM (inactive) | 91.2 µM (inactive) | > 100 µM (inactive) | > 100 µM (inactive) | > 100 µM (inactive) | > 100 µM (inactive) |  | > 100 µM (inactive) | > 100 µM (inactive) | > 100 µM (inactive) | > 100 µM (inactive) | > 100 µM (inactive) | 
CCOC(=O)C#Cc1ccc([N+](=O)[O-])cc1 | 1.55 µM (inactive) | 10.4 µM (inactive) | 2.18 µM (inactive) | 1.1 µM (active) | 3.15 µM (inactive) | 1.66 µM (inactive) | 2.07 µM (inactive) | 2.15 µM (inactive) |  | 12.4 µM (inactive) | 1.49 µM (inactive) | 11.2 µM (inactive) | 1.28 µM (inactive) | 2.52 µM (inactive) | 2.67 µM (inactive) | 2.01 µM (inactive) | 14.3 µM (inactive) | 1.98 µM (inactive) | 1.73 µM (inactive) | 2.06 µM (inactive)
O=C1[C@H](c2ccccc2)C2c3ccccc3CCN12 (stereo not given in full) | > 10 µM (inactive) | > 10 µM (inactive) | > 10 µM (inactive) | > 10 µM (inactive) | > 10 µM (inactive) | > 10 µM (inactive) | > 10 µM (inactive) | > 10 µM (inactive) | 0.897 µM (active) | > 10 µM (inactive) | > 10 µM (inactive) | > 10 µM (inactive) | > 10 µM (inactive) | > 10 µM (inactive) | > 10 µM (inactive) | > 10 µM (inactive) | > 10 µM (inactive) | > 10 µM (inactive) | > 10 µM (inactive) | > 10 µM (inactive)
CC(C)(C)c1ccc2c(c1)C#Cc1cc(C(C)(C)C)ccc1OCCCO2 | > 100 µM (inactive) | > 100 µM (inactive) | > 100 µM (inactive) | > 100 µM (inactive) | > 100 µM (inactive) | > 100 µM (inactive) | > 100 µM (inactive) | > 100 µM (inactive) | > 100 µM (inactive) | > 100 µM (inactive) | > 100 µM (inactive) | > 100 µM (inactive) | > 100 µM (inactive) | > 100 µM (inactive) | > 100 µM (inactive) | > 100 µM (inactive) | > 100 µM (inactive) | > 100 µM (inactive) | > 100 µM (inactive) | 
Fc1ccc(/N=C/C=C/Nc2ccc(F)cc2)cc1 | 4.3 µM (inactive) | 8.67 µM (inactive) | 14.1 µM (inactive) | 4.67 µM (inactive) | 12.9 µM (inactive) | 3 µM (inactive) | 0.278 µM (active) | 0.137 µM (active) | 16.4 µM (inactive) | 6.19 µM (inactive) | 13.5 µM (inactive) | 15.3 µM (inactive) | 15.8 µM (inactive) | 13.4 µM (inactive) | 4.84 µM (inactive) | 6.37 µM (inactive) |  | 0.509 µM (active) | 12.9 µM (inactive) | 14.1 µM (inactive)
C[N+](C)(C)/C=N\c1cccc2nsnc12 | > 100 µM (inactive) | > 100 µM (inactive) | > 100 µM (inactive) | > 100 µM (inactive) | > 100 µM (inactive) | > 100 µM (inactive) | > 100 µM (inactive) | > 100 µM (inactive) | > 100 µM (inactive) |  | > 100 µM (inactive) | > 100 µM (inactive) | > 100 µM (inactive) | > 100 µM (inactive) | > 100 µM (inactive) | > 100 µM (inactive) | > 100 µM (inactive) | > 100 µM (inactive) | > 100 µM (inactive) | > 100 µM (inactive)
OC1CCCCCCCCCCC1[S+]1CCCC1.O[B-](F)(F)F (stereo not given) | > 100 µM (inactive) | 96.6 µM (inactive) | > 100 µM (inactive) | > 100 µM (inactive) | > 100 µM (inactive) | > 100 µM (inactive) | 29.6 µM (inactive) | > 100 µM (inactive) | 42 µM (inactive) | > 100 µM (inactive) | > 100 µM (inactive) | 85.9 µM (inactive) | > 100 µM (inactive) | > 100 µM (inactive) | 27.7 µM (inactive) | > 100 µM (inactive) | > 100 µM (inactive) | > 100 µM (inactive) | > 100 µM (inactive) | > 100 µM (inactive)
NCC(O)CSCc1ccc(Cl)cc1 (stereo not given) | > 100 µM (inactive) | > 100 µM (inactive) | > 100 µM (inactive) | > 100 µM (inactive) |  | > 100 µM (inactive) | > 100 µM (inactive) | > 100 µM (inactive) | > 100 µM (inactive) | > 100 µM (inactive) | > 100 µM (inactive) | > 100 µM (inactive) | > 100 µM (inactive) | > 100 µM (inactive) | > 100 µM (inactive) | > 100 µM (inactive) | > 100 µM (inactive) | > 100 µM (inactive) | > 100 µM (inactive) | 
COC(=O)CNC(=O)C(C)NC(=O)C(CC(=O)OCc1ccccc1)NC(=O)OCc1ccccc1 (stereo not drawn) (Cbz-Asp(OBn)-Ala-Gly-OMe; configuration not given here) | > 100 µM (inactive) | 39.5 µM (inactive) | 37.8 µM (inactive) |  |  | 30.6 µM (inactive) | 27.5 µM (inactive) | > 100 µM (inactive) | 45.2 µM (inactive) | 50.7 µM (inactive) | 34.3 µM (inactive) |  | 13.8 µM (inactive) |  | 17 µM (inactive) | 21.6 µM (inactive) | 20.5 µM (inactive) | 58.3 µM (inactive) | 13.7 µM (inactive) | 70.8 µM (inactive)
